Source: ChEMBL document CHEMBL1949670, “Probes for narcotic receptor mediated phenomena. 44. Synthesis of an N-substituted 4-hydroxy-5-(3-hydroxyphenyl)morphan with high affinity and selective μ-antagonist activity” (Eur J Med Chem, 2012)

Experiments:
Mus musculus = assay: Antinociceptive activity in sc dosed mouse; format: functional
[1] = molecular target: Mu-type opioid receptor (Homo sapiens) (UniProt P35372); details: CHO
Sequence of Mu-type opioid receptor (Homo sapiens) (P35372 whole entry): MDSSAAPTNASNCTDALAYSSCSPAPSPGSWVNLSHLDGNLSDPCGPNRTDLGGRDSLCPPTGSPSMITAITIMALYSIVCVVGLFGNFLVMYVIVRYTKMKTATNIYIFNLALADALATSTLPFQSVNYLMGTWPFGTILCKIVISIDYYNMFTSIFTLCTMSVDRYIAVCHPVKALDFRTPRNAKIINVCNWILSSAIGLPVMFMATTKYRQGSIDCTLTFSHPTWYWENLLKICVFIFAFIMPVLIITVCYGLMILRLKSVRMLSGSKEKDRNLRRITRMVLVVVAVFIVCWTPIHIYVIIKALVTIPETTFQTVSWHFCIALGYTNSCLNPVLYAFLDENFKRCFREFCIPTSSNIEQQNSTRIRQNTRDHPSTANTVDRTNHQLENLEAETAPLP
Description: Antagonist activity at human mu receptor expressed in CHO cells membrane assessed as inhibition of DAMGO-induced [35S]GTPgammaS binding after 3 hrs by liquid scintillation counting

| SMILES | ED50 (Mus musculus) [mg/kg] | ED50 [1] [nM] | Ke [1] [nM] |
| --- | --- | --- | --- |
| CN1CC[C@]23c4c5ccc(O)c4O[C@H]2[C@@H](O)C=C[C@@]3(O)[C@H]1C5 | 2.9 |  |  |
| CN1CC2(OCCO2)[C@]2(c3cccc(O)c3)CCC[C@H]1C2 (racemic) |  | 89 | 154 |
| Oc1cccc([C@@]23CCC[C@@H](C2)N(CCc2ccccc2)C[C@H]3O)c1 (racemic) |  |  | 12 |
| CN1CC[C@]23c4c5ccc(O)c4O[C@H]2[C@@H](O)CC[C@H]3[C@H]1C5 [DIHYDROMORPHINE] | 1.8 |  |  |
| CN1CC[C@]23c4c5ccc(O)c4O[C@H]2[C@@H](O)CC[C@@]3(O)[C@H]1C5 [HYDROMORPHINOL] | 1.1 |  |  |
